{"source": "paper PMC10221029", "about": "“Photoprotection and Antiaging Activity of Extracts from Honeybush (Cyclopia sp.)—In Vitro Wound Healing and Inhibition of the Skin Extracellular Matrix Enzymes: Tyrosinase, Collagenase, Elastase and Hyaluronidase” (Pharmaceutics, 2023)", "target": "T1, Collagenase from Clostridium histolyticum", "T1 construct": "gene colG; ColG / ColH not distinguished", "assay": "spectrophotometric FALGPA hydrolysis, […] nm", "type": "biochemical", "details": "substrate FALGPA 0.8 mM; 50 mM tricine pH 7.5, 400 mM NaCl, 10 mM CaCl2; 15 min pre-incubation, room temperature", "data": [{"smiles": "CC1(C)CC[C@]2(C(=O)O)CC[C@]3(C)C(=CC[C@@H]4[C@@]5(C)CC[C@H](O)C(C)(C)[C@@H]5CC[C@]43C)[C@@H]2C1", "note": "[oleanolic acid]", "values": [{"measurement": "Standard Oleanolic Acid *", "result": "25.66 ± 0.39", "unit": "µg/mL"}]}]}
